# Earlier results as cited in patent US9857354B2, “Compositions and methods for prognosis and treatment of neoplasm” (NOVAZOI THERANOSTICS, INC., priority 2014, dated 2018).
# Key:
# [1] = test system: BT-549 breast cancer cells; conditions: BT-549 breast cancer cells with amplified centrosomes
# [2] = target: T1, KIFC1/microtubule (MT) binary complex (Homo sapiens, UniProt Q9BW19); conditions: ATP-competitive and MT-noncompetitive; read-out: Ki, inhibition of MT-stimulated KIFC1 enzymatic activity
# T1 sequence (Q9BW19 1-673): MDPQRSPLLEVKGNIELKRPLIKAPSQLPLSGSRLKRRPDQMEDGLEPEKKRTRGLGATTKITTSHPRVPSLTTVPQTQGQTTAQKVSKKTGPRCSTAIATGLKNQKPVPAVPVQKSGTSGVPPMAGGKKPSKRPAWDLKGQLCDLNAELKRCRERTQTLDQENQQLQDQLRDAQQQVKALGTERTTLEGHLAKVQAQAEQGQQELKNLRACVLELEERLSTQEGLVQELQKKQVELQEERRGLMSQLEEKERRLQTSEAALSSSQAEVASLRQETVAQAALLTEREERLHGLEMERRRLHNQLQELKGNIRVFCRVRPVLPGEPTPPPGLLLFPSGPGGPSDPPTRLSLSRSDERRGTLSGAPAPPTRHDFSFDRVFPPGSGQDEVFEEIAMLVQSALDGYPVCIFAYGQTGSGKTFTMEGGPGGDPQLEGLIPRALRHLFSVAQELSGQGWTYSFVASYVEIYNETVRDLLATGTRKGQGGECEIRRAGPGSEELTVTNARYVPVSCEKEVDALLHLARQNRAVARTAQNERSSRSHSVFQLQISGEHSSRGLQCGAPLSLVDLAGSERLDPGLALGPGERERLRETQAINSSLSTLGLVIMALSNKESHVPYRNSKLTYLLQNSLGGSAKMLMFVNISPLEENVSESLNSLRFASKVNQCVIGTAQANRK
compound,measurement,setting,value
CCCc1cc(C(=O)N[C@H](Cc2ccc(-c3cccc(OC(F)(F)F)c3)nc2)C(=O)N[C@@H]2CCNC2)sc1C [AZ82],centrosome declustering,[1],causes centrosome declustering
same,Ki,[2],43 nM
